Legend:
[1] = molecular target: standard panel of 30 kinases; experiment: Kinase selectivity panel (SelectScreen Z'-LYTE), number of kinases inhibited; assay type: biochemical, human; conditions: count out of 30 kinases
Description: Prior art document WO 2012/010704, which is completely silent about the pharmacokinetic profile of its compounds, discloses compounds with similar substituents in the 2-position, e.g. compounds I-166, I-167 and I-175, which share the previously undefined, desirable pharmacokinetic profile with compounds (I) according to the invention.
(§1) In order to compare the kinase selectivity of compounds (I) according to the invention with known prior art compounds the commercially provided SelectScreen® Kinase Profiling Service (Z′-LYTE®) was used (Life Technologies GmbH, Darmstadt, Germany) to investigate the ability of the compounds to inhibit a number of different, representatively selected human kinases. Further details regarding this service are available on the Life Technologies website at
(§2) The Z′-LYTE® biochemical assay employs a fluorescence-based, coupled-enzyme format and is based on the differential sensitivity of phosphorylated and non-phosphorylated peptides to proteolytic cleavage. The peptide substrate is labeled with two fluorophores—one at each end—that make up a FRET pair.
(§3) In the primary reaction, the kinase transfers the gamma-phosphate of ATP to a single tyrosine, serine or threonine residue in a synthetic FRET-peptide. In the secondary reaction, a site-specific protease recognizes and cleaves non-phosphorylated FRET-peptides. Phosphorylation of FRET-peptides suppresses cleavage by the Development Reagent. Cleavage disrupts FRET between the donor (i.e., coumarin) and acceptor (i.e., fluorescein) fluorophores on the FRET-peptide, whereas uncleaved, phosphorylated FRET-peptides maintain FRET. A ratiometric method, which calculates the ratio (the Emission Ratio) of donor emission to acceptor emission after excitation of the donor fluorophore at 400 nm, is used to quantitate reaction progress, as shown in the equation below.
(§4) The Test Compounds are screened at 1 μM.

MYLK2 (skMLCK) = molecular target: T1, MYLK2 (skMLCK) (Homo sapiens, UniProt Q9H1R3); experiment: Z'-LYTE kinase selectivity assay MYLK2; assay type: biochemical
T1 construct: purchased Life Technologies PV 3757
Description: as §1, §2, §3, §4
The 2×MYLK2 (skMLCK) (# PV 3757)/Ser/Thr 13 (Z′-LYTE® Kinase Assay Kit—Ser/Thr 13 Peptide, # PV 3793) mixture is prepared in 50 mM HEPES pH 7.5, 0.01% BRIJ-35, 10 mM MgCl2, 1 mM EGTA, 4 mM CaCl2, 800 U/mL Calmodulin, 0.02% NaN3. The final 10 μL Kinase Reaction consists of 6.71-48.9 ng MYLK2 (skMLCK) and 2 μM Ser/Thr 13 in 50 mM HEPES pH 7.5, 0.01% BRIJ-35, 10 mM MgCl2, 1 mM EGTA, 2 mM CaCl2, 400 U/mL Calmodulin, 0.01% NaN3. After the 1 hour Kinase Reaction incubation, 5 μL of a 1:1024 dilution of Development Reagent A is added.

NEK2 = molecular target: T2, NEK2 (Homo sapiens, UniProt P51955); experiment: Z'-LYTE kinase selectivity assay NEK2; assay type: biochemical
T2 construct: purchased Life Technologies PV 3360
T2 sequence (P51955 1-445): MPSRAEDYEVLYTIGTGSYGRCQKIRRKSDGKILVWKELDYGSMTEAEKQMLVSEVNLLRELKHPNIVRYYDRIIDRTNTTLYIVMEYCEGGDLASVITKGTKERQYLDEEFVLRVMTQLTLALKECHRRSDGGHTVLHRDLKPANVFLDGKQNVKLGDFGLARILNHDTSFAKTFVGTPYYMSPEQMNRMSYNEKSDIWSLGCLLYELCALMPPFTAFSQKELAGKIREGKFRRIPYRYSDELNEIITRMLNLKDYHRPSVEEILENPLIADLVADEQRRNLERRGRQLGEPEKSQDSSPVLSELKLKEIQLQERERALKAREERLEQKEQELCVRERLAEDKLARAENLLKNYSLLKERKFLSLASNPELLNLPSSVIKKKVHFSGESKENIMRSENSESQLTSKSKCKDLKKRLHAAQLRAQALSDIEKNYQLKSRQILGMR
Description: as §1, §2, §3, §4
The 2×NEK2 (# PV 3360)/Ser/Thr 07 (Z′-LYTE® Kinase Assay Kit—Ser/Thr 7 Peptide, # PV 3180) mixture is prepared in 50 mM HEPES pH 7.5, 0.01% BRIJ-35, 10 mM MgCl2, 1 mM EGTA. The final 10 μL Kinase Reaction consists of 0.5-5.4 ng NEK2 and 2 μM Ser/Thr 07 in 50 mM HEPES pH 7.5, 0.01% BRIJ-35, 10 mM MgCl2, 1 mM EGTA. After the 1 hour Kinase Reaction incubation, 5 μL of a 1:65000 dilution of Development Reagent A is added.

PDK1 Direct = molecular target: T3, PDK1 Direct (Homo sapiens, UniProt O15530); experiment: Z'-LYTE kinase selectivity assay PDK1; assay type: biochemical
T3 sequence (O15530 1-556): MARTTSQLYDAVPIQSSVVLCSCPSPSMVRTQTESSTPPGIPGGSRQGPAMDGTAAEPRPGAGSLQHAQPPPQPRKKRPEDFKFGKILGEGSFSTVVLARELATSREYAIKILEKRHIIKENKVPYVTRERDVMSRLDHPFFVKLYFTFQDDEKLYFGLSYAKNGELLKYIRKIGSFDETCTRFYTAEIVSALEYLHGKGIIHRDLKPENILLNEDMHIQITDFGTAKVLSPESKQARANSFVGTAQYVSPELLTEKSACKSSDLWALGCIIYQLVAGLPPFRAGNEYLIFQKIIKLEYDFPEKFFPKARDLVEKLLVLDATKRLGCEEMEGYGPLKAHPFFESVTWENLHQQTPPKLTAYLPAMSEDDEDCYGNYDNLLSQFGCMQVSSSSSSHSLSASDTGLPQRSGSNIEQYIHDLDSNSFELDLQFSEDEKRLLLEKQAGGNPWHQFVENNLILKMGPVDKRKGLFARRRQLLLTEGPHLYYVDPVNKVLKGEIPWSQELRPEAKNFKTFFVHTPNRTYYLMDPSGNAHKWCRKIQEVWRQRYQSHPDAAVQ
Description: as §1, §2, §3, §4
The 2×PDK1 Direct/Ser/Thr 07 (Z′-LYTE® Kinase Assay Kit—Ser/Thr 7 Peptide, # PV 3180) mixture is prepared in 50 mM Tris pH 8.5, 0.01% BRIJ-35, 10 mM MgCl2, 1 mM EGTA, 0.02% NaN3. The final 10 μL Kinase Reaction consists of 5.04-29.4 ng PDK1 Direct and 2 μM Ser/Thr 07 in 50 mM Tris/HEPES pH 8.0, 0.01% BRIJ-35, 10 mM MgCl2, 1 mM EGTA, 0.01% NaN3. After the 1 hour Kinase Reaction incubation, 5 μL of a 1:65000 dilution of Development Reagent A is added.

# kinases inhibited >50% @ 1 μM [1]	inhibition at 1 µM (MYLK2 (skMLCK))	inhibition at 1 µM (NEK2)	inhibition at 1 µM (PDK1 Direct)	Structure (SMILES)
6/30	23%	32%	3%	CC(O)CN1CCN(CCn2ccc(Nc3ncc4c(n3)-c3c(nn(C)c3-c3ccccc3)C[C@H]4C)n2)CC1 (stereo partly shown) [Compound I-7]
4/30	16%	24%	20%	COCCN1CCN(CCn2ccc(Nc3ncc4c(n3)-c3c(nn(C)c3-c3ccccc3)C[C@H]4C)n2)CC1 [Compound I-11]
6/30	12%	29%	9%	C[C@@H]1Cc2nn(C)c(-c3ccccc3)c2-c2nc(Nc3ccn(CCN4CCN(CC(C)(C)O)CC4)n3)ncc21 [Compound I-3]
6/30	16%	15%	-2%	C[C@@H]1Cc2nn(C)c(-c3ccccc3)c2-c2nc(Nc3ccn(CCN4CCN(C)CC4)n3)ncc21 [Compound I-1]
3/30	13%	22%	5%	C[C@@H]1Cc2nn(C)c(-c3ccccc3)c2-c2nc(Nc3ccn(CCN4CCN(CC(=O)OC5CCOCC5)CC4)n3)ncc21 [Compound I-8]
6/30	10%	32%	6%	C[C@@H]1Cc2nn(C)c(-c3ccccc3)c2-c2nc(Nc3ccn(CCN4CCN(CC5CCCO5)CC4)n3)ncc21 (stereo partly shown) [Compound I-9]
7/30	3%	25%	1%	C[C@@H]1Cc2nn(C)c(-c3ccccc3)c2-c2nc(Nc3ccn(CCN4CCOCC4)n3)ncc21 [Compound I-2]
